Test results from patent US20240065983A1, “COMPOSITION AND METHOD FOR TREATING COVID-19” (University of South Florida, priority 2021, published 2024).

How the values were obtained:
SARS-CoV-2 delta = assay type: cell-based
[1] = system: SARS CoV2 variants (WA, UK B.1.1.7, SA B.1.351); assay type: cell-based, SARS-CoV-2

Structure (SMILES): CC(O)c1ccc(CCOc2ccc(CC3SC(=O)NC3=O)cc2)nc1 (stereo not drawn) [LG, leriglitazone]
- expression of N and inflammatory gene transcripts (SARS-CoV-2 delta): decreased expression of N and several inflammatory gene transcripts
- expression of CoV2-N gene and S genes [1]: significantly inhibited
- expression of inflammatory genes TNFα, IL-6, IL1β ([1]; LG 20 uM, all CoV2 strains): down-regulated at the transcript level
